Results taken from patent US20180271858A1, “SOLUTION FOR ORAL ADMINISTRATION” (OTSUKA PHARMACEUTICAL CO., LTD., priority 2011, published 2018).

Test: solubility in water (statement in the background section)
Type: physicochemical
Conditions: compound (I) or a salt thereof

Compound: O=c1ccc2ccc(OCCCCN3CCN(c4cccc5sccc45)CC3)cc2[nH]1 [compound (I), 7-[4-(4-benzo[b]thiophen-4-yl-piperazin-1-yl)butoxy]-1H-quinolin-2-one]
- solubility in water: hardly soluble in water
